Source: patent publication US11401271B2, “Fused heterocyclic compound, pyrazole-ring-containing fused heterocyclic compound, agricultural composition containing thereof, and method of using the composition” (SOUTH CHINA AGRICULTURAL UNIVERSITY, priority 2017, dated 2022)
Structures can show the parent of a compound that is named as a salt.

What was measured:
Assay in all cases: whole plant or invertebrate
Format in all cases: in vivo
Solenopsis invicta = conditions: 100 ppm, water test tube poison-feeding
Summary of the method: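 Mortality (%) of Solenopsis invicta, computed against live counts in control tubes, was recorded 24 h and 72 h after treatment at 25 °C. Compound was offered by oral feeding in test tubes at 100 ppm, diluted from a 10 g/L DMSO stock into water with 5% honey and 0.05% Tween-80.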

Plutella xylostella = conditions: 500 ppm; 2nd-instar larvae, leaf immersion feeding
Summary of the method: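 Leaf immersion feeding test: 2nd-instar larvae (about 35 per vessel, 3 replicates) kept at 28° C. on 1.0 cm cabbage discs soaked 5 s in a 500 ppm solution with 0.05% Tween-80. Mortality after 24 h of exposure, calculated relative to live larvae in the Tween-80 control.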

Aphis craccivora = conditions: 500 ppm, wingless adults; for Aphis craccivora Mortality (%) 500 ppm: impregnation method, 24 hours; for Aphis craccivora Mortality (%): immersion 5 seconds, counted after 24 hours
Summary of the method: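 Mortality scored 24 h after treatment as the reduction in live aphids versus a 0.05% Tween-80 control; three replicates, 23° C. Treatment was a 5 s immersion of wingless adults on bean sprouts in 500 ppm test solution containing 0.05% Tween-80, followed by air-drying.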

Spodoptera exigua = conditions: 500 ppm, 2nd-instar larvae, leaf immersion feeding; for Spodoptera exigua Mortality (%) 500 ppm: 24 hours
Summary of the method: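 Leaf immersion feeding: second-instar larvae (about 35 per vessel, triplicate) kept at 28° C on discs treated with 500 ppm test solution in 0.05% Tween-80. Mortality at 24 h, calculated relative to surviving larvae in the solvent control.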

Row | SMILES | Solenopsis invicta Mortality (%) 100 ppm 24 h (Solenopsis invicta) | Solenopsis invicta Mortality (%) 100 ppm 72 h (Solenopsis invicta) | Plutella xylostella Mortality (%) 500 ppm (Plutella xylostella) | Aphis craccivora Mortality (%) 500 ppm (Aphis craccivora) | Spodoptera exigua Mortality (%) 500 ppm (Spodoptera exigua) | Solenopsis invicta Mortality (%) 24 h (Solenopsis invicta) | Solenopsis invicta Mortality (%) 72 h (Solenopsis invicta) | Plutella xylostella Mortality (%) (Plutella xylostella) | Aphis craccivora Mortality (%) (Aphis craccivora) | Spodoptera exigua Mortality (%) (Spodoptera exigua)
1 | N#Cc1nn2c(c1[S+]([O-])C(F)(F)F)NC(Cl)c1cc(C(F)(F)F)cnc1-2 (stereo not drawn) [a-80] | 10% | 100% | 91% | 100% | 85% | – | – | – | – | –
2 | COC(=O)C1Nc2c([S+]([O-])C(F)(F)F)c(C(F)(F)F)nn2-c2ncc(C(F)(F)F)cc21 (stereo not drawn) [a-87] | 20% | 97% | 96% | 100% | 100% | – | – | – | – | –
3 | COC(=O)CC1Nc2c([S+]([O-])C(F)(F)F)c(C(F)(F)F)nn2-c2ncc(C(F)(F)F)cc21 (stereo not drawn) [a-88] | 34% | 100% | 100% | 100% | 100% | – | – | – | – | –
4 | N#CC1Nc2c([S+]([O-])C(F)(F)F)c(C(F)(F)F)nn2-c2ncc(C(F)(F)F)cc21 (stereo not drawn) [a-95] | 21% | 92% | 96% | 100% | 89% | – | – | – | – | –
5 | CC=CC1Nc2c([S+]([O-])C(F)(F)F)c(C(F)(F)F)nn2-c2ncc(C(F)(F)F)cc21 (stereo not drawn) [a-109] | 20% | 90% | 95% | 100% | 89% | – | – | – | – | –
6 | COC(=O)CC1(C(=O)OC)Nc2c(Cl)c(C#N)nn2-c2ncc(C(F)(F)F)cc21 (stereo not drawn) [a-133] | 24% | 100% | 100% | 100% | 100% | – | – | – | – | –
7 | COC(=O)CC1(C(=O)OC)Nc2c([S+]([O-])C(F)(F)F)c(C#N)nn2-c2cncc(Cl)c21 (stereo not drawn) [b-1] | – | – | – | – | – | 20% | 97% | 100% | 100% | 100%
8 | COC(=O)C1(CC#N)Nc2c([S+]([O-])C(F)(F)F)c(C#N)nn2-c2cncc(Cl)c21 (stereo not drawn) [b-2] | – | – | – | – | – | 19% | 93% | 100% | 100% | 95%
9 | CCOC(=O)C1(CC(=O)OC)Nc2c([S+]([O-])C(F)(F)F)c(C#N)nn2-c2cncc(Cl)c21 (stereo not drawn) [b-23] | – | – | – | – | – | 10% | 97% | 96% | 100% | 95%
10 | N#Cc1nn2c(c1[S+]([O-])C(F)(F)F)NC(CC(=O)C(F)(F)F)(C(=O)C(F)(F)F)c1c(Cl)cncc1-2 (stereo not drawn) [b-25] | – | – | – | – | – | 26% | 100% | 100% | 100% | 100%
11 | N#Cc1nn2c(c1[S+]([O-])C(F)(F)F)NC(Cc1ccccc1)(C(=O)C(F)(F)F)c1c(Cl)cncc1-2 (stereo not drawn) [b-27] | – | – | – | – | – | 19% | 100% | 91% | 100% | 89%
12 | COC(=O)CC1(C(=O)C(F)(F)F)Nc2c([S+]([O-])C(F)(F)F)c(C#N)nn2-c2cncc(Cl)c21 (stereo not drawn) [b-28] | – | – | – | – | – | 16% | 100% | 100% | 100% | 99%
13 | N#CCC1(C(=O)C(F)(F)F)Nc2c([S+]([O-])C(F)(F)F)c(C#N)nn2-c2cncc(Cl)c21 (stereo not drawn) [b-30] | – | – | – | – | – | 25% | 94% | 90% | 100% | 85%
14 | CC(=O)C1(CBr)Nc2c([S+]([O-])C(F)(F)F)c(C#N)nn2-c2cncc(Cl)c21 (stereo not drawn) [b-34] | – | – | – | – | – | 10% | 100% | 90% | 100% | 87%
15 | CC(=O)C1(CC(=O)C(F)(F)F)Nc2c([S+]([O-])C(F)(F)F)c(C#N)nn2-c2cncc(Cl)c21 (stereo not drawn) [b-37] | – | – | – | – | – | 20% | 94% | 86% | 99% | 90%
16 | CNC1(CC#N)Nc2c([S+]([O-])C(F)(F)F)c(C#N)nn2-c2cncc(Cl)c21 (stereo not drawn) [b-43] | – | – | – | – | – | 19% | 90% | 89% | 89% | 80%
17 | N#CCC1(Cl)Nc2c([S+]([O-])C(F)(F)F)c(C#N)nn2-c2cncc(Cl)c21 (stereo not drawn) [b-47] | – | – | – | – | – | 18% | 90% | 95% | 100% | 85%
18 | N#Cc1nn2c(c1[S+]([O-])C(F)(F)F)NC(Cl)(CC(F)(F)F)c1c(Cl)cncc1-2 (stereo not drawn) [b-48] | – | – | – | – | – | 15% | 90% | 100% | 100% | 89%
19 | COC(=O)C(C)C1Nc2c([S+]([O-])C(F)(F)F)c(C#N)nn2-c2cncc(Cl)c21 (stereo not drawn) [b-66] | – | – | – | – | – | 28% | 97% | 96% | 100% | 91%
20 | N#Cc1nn2c(c1[S+]([O-])C(F)(F)F)NC(CC(=O)C(F)(F)F)c1c(Cl)cncc1-2 (stereo not drawn) [b-70] | – | – | – | – | – | 44% | 100% | 100% | 100% | 95%
21 | N#CCC1Nc2c([S+]([O-])C(F)(F)F)c(C#N)nn2-c2cncc(Cl)c21 (stereo not drawn) [b-73] | – | – | – | – | – | 20% | 90% | 89% | 100% | 85%
22 | N#Cc1nn2c(c1[S+]([O-])C(F)(F)F)NC(Cl)c1c(Cl)cncc1-2 (stereo not drawn) [b-80] | – | – | – | – | – | 14% | 90% | 95% | 100% | 90%
23 | CC=CC1Nc2c([S+]([O-])C(F)(F)F)c(C#N)nn2-c2cncc(Cl)c21 (stereo not drawn) [b-86] | – | – | – | – | – | 20% | 97% | 96% | 100% | 89%
24 | COC(=O)C1Nc2c([S+]([O-])C(F)(F)F)c(C(F)(F)F)nn2-c2cncc(Cl)c21 (stereo not drawn) [b-87, 6-chloro-2-trifluoromethyl-3-trifluoromethylsulfinyl-4,5-dihydropyrazole[1,5-α]quinazoline[4,3-e]pyridine-5-methyl formate] | – | – | – | – | – | 14% | 100% | 95% | 100% | 95%
